Reference: US6458826B2, “Composition for repelling and deterring pests” (Navartis Animal Health US, Inc., priority 1998, dated 2002)

Assays:
[1] = system: Rhipicephalus sanguineus (nymphs); test: Arena test in vitro against Rhipicephalus sanguineus (nymphs); assay type: in vivo; settings: even up to a dilution of 3.2 μg/cm^2
Procedure: (§1) This method is carried out in titre plates having 6 wells with a cross-section of 5 cm each, using a computer-supported video system. Each well of the titre plate is lined with a circular filter paper or another suitable carrier material. The substance of formula I to be tested is dissolved in methanol, acetonitrile or another suitable solvent, with ultrasound treatment and heating being employed for poorly-soluble substances. In an amount of 1 to 100 μg/cm^2, the dissolved test substance is placed in the centre of the filter paper on a quadrant or circular area of ca. 2.4 cm^2 radius. 4 of the 6 wells are filled with different test substances or with the same test substance in different dilutions (e.g. 1, 3.2, 5, 10 and 20 μg/cm^2). The 5th well is treated with DEET (N,N-diethyl-m-toluamide) as standard substance. The 6th well is filled with the pure solvent and serves as a control. 60 to 100 larvae or 25 to 50 nymphs or 10 to 25 adults of the parasite to be tested, e.g. ticks, are added to each filter paper, and the system is covered with a pane of glass and positioned under a video camera. At intervals of 5 seconds, the video camera takes individual pictures of all 6 wells. For a qualitative evaluation, these images are observed in a time-lapse as a continuous film, optically following the movements of the parasites on the filter paper and comparing them with the movements in the control well no. 6 or with the standard in the 5th well. A qualitative observation is thus made as to whether the test parasites move evenly over the whole surface of the filter paper and ignore the test substance, or whether and over what period they avoid the treated zone, and what influence the dilution of the test substance has on the behaviour of the test parasites. In this way, neutral and repellent substances are determined. At the same time, the duration of activity of the test substance is determined and compared with that of the standard. […] This frequency is evaluated statistically and thus quantitatively by the Willcoxon method in a comparison with the control and with the standard. […]

[2] = system: Boophilus microplus Biarra (larvae); test: Arena test in vitro against Boophilus microplus Biarra (larvae); assay type: in vivo; settings: even up to a dilution of 3.2 μg/cm^2
Procedure: as §1

[3] = system: Amblyomma hebraeum or variegatum (nymphs); test: Arena test in vitro against Amblyomma hebraeum or variegatum (nymphs); assay type: in vivo; settings: even up to a dilution of 3.2 μg/cm^2
Procedure: as §1

ticks = test: Arena test method for testing vermin-repellent substances; assay type: in vivo; settings: 1 to 100 μg/cm^2 on filter paper, video evaluation versus control and DEET
Procedure: Arena Test Method for Testing Vermin-repellent Substances
This method is carried out in titre plates having 6 wells with a cross-section of 5 cm each, using a computer-supported video system. Each well of the titre plate is lined with a circular filter paper or another suitable carrier material. The substance of formula I to be tested is dissolved in methanol, acetonitrile or another suitable solvent, with ultrasound treatment and heating being employed for poorly-soluble substances. In an amount of 1 to 100 μg/cm^2, the dissolved test substance is placed in the centre of the filter paper on a quadrant or circular area of ca. 2.4 cm^2 radius. 4 of the 6 wells are filled with different test substances or with the same test substance in different dilutions (e.g. 1, 3.2, 5, 10 and 20 μg/cm^2). The 5th well is treated with DEET (N,N-diethyl-m-toluamide) as standard substance. The 6th well is filled with the pure solvent and serves as a control. […] In this way, neutral and repellent substances are determined. At the same time, the duration of activity of the test substance is determined and compared with that of the standard. […] This frequency is evaluated statistically and thus quantitatively by the Willcoxon method in a comparison with the control and with the standard. […]

vermin = settings: cited from earlier work

Row | SMILES | long-term activity against Rhipicephalus sanguineus nymphs [1] | long-term activity against Boophilus larvae [2] | long-term activity against Amblyomma nymphs [3] | repellent activity in arena test (ticks) | time after which it has to be reapplied (volatilizes rather rapidly) (vermin)
1 | OC(c1ccc(Cl)cc1)C1CCCN1 (stereo not drawn) [Compound 1.45, 2-[(1-[4-chorophenyl])(1-hydroxy)methyl]pyrrolidine] | Particularly marked long-term activity | Particularly marked long-term activity | Particularly marked long-term activity | excellent activity | 
2 | CCN(CC)C(=O)c1cccc(C)c1 [DEET, N,N-diethyl-m-toluamide] |  |  |  |  | ca. 2 hours
3 | OC(c1ccccc1)C1CCCN1 (stereo not drawn) [Compound 1.31, 2-[(1-phenyl)(1-hydroxy)methyl]pyrrolidine] | Particularly marked long-term activity | Particularly marked long-term activity | Particularly marked long-term activity |  | 
4 | Cc1ccc(C(O)C2CCC(C)(C)N2)c(C)c1 (stereo not drawn) [Compound 1.55, 2-[(1-[2,4-dimethylphenyl])(1-hydroxy)methyl]-5,5-dimethyl-pyrrolidine] | Particularly marked long-term activity | Particularly marked long-term activity | Particularly marked long-term activity | excellent activity | 
